The record followed here is ChEMBL document CHEMBL1772953, “Lupinacidin C, an inhibitor of tumor cell invasion from Micromonospora lupini” (J Nat Prod, 2011).

The nature of data set [1]: Antiinvasive activity against mouse 26-L5 cells after 6 to 8 hrs using hematoxylin/eosin dye by Matrigel assay. The class given is functional, cell-based.
The nature of data set [2]: Cytotoxicity against mouse 26-L5 cells at <0.3 ug/ml after 24 hrs. The class given is cell-based.

As to `Cc1c(O)c(CCC(C)C)c2c(c1O)C(=O)c1cccc(O)c1C2=O` [LUPINACIDIN A], half-maximal inhibition in data set [1] (IC50) was put at 210 nM.
Still for that read-out and setting: then `CCCCc1c(O)c(C)c(O)c2c1C(=O)c1c(O)cccc1C2=O` [LUPINACIDIN B], with 920 nM.
Turning to `CC[C@H](C)CCc1c(O)c(C)c(O)c2c1C(=O)c1c(O)cccc1C2=O` [LUPINACIDIN C], in data set [1], half-maximal inhibition (IC50) required 540 nM. Besides, the Activity result in data set [2] is recorded as “Non-toxic”.
